The values that follow come from patent US20140364434A1, “Biomarkers for Prediction of Response to PARP Inhibition in Breast Cancer” (The Regents of the University of Califonia, priority 2011, published 2014).

The test system of data set [1] is metastatic triple negative breast cancer. The settings on record: cited from earlier work.
The test system of the next data set is BT20. The experiment in a line: growth inhibition assay, sensitivity to olaparib (SF50). The data set is classed as cell-based, human. Here is the method:
(§1) Cells were exposed continuously to the inhibitor, and medium and inhibitor were replaced every four days. After 15 days, cells were fixed and stained with sulphorhodamine-B (Sigma, St. Louis, USA) and a colorimetric assay performed as described previously. Surviving fractions (SFs) were calculated and drug sensitivity curves determined with the Four Parameter Logistic Regression model as previously described. […] Nature 2005, 434(7035):917-921, Edwards S L, Brough R, Lord […], Boyd […], Ashworth A: […] Nature 2008, 451(7182):1111-1115]. […] Oncogene 30 (29):3222-3233. doi:10.1038/one.2011.421). A detailed description of the availability and preprocessing of all molecular data sets is provided below and [[…], et al., (2012) Subtype and pathway specific responses to anticancer compounds in breast cancer. […] These cells mirror many of the transcriptional and genomic characteristics of primary breast tumors and have been used to model responses to a large number of experimental and approved therapeutic compounds [Neve R M, Chin […], Clark L, Bayani N, Coppe J P, Tong F et al: A collection of breast cancer cell lines for the study of functionally distinct cancer subtypes. […] (2012) Subtype and pathway specific responses to anticancer compounds in breast cancer. […] Cell lines were divided into a group of 15 resistant and 7 sensitive cell lines, based on an SF50 threshold of 1 μM. […] Surviving fractions (SFs) were calculated and drug sensitivity curves determined with the Four Parameter Logistic Regression model as previously described [Farmer H, McCabe N, Lord C J, Tutt A N, Johnson D A, Richardson […], Dillon […], Knights C et al: Targeting the DNA repair defect in BRCA mutant cells as a therapeutic strategy. Nature 2005, 434(7035):917-921].\

The test system of another data set is BT474. The description is as above. The data set is classed as cell-based, human. Here is the method: as §1
Another data set concerns BT549. Described as above. The data set is classed as cell-based, human. The protocol: as §1
The test system of another data set is CAMA1. The data set is described as above. The data set is classed as cell-based, human. The protocol:
as §1

A further data set has as its system HCC1143. The description is as above. The class given is cell-based, human. The protocol: as §1
In the next data set the test system is HCC1428. The description is as above. The class given is cell-based, human. The protocol: as §1
For a further data set, the system named is HCC1954. The data set is described as above. The data set is classed as cell-based, human. Here is the method:
as §1

Another data set relates to HCC202. The description is as above. The class given is cell-based, human. Here is the method:
as §1

A further data set concerns HCC38. The data set is described as above. The data set is classed as cell-based, human. The protocol: as §1
Another data set concerns HCC70. The data set is described as above. The data set is classed as cell-based, human. The protocol: as §1
Another data set deals with HS578T. The data set is described as above. The data set is classed as cell-based, human. Here is the method:
as §1

For the next data set, the system named is MCF7. The data set is described as above. The class given is cell-based, human. The protocol: as §1
The test system of the next data set is MDAMB134VI. The description is as above. The class given is cell-based, human. The protocol:
as §1

The test system of a further data set is MDAMB157. The data set is described as above. The data set is classed as cell-based, human. The protocol:
as §1

The next data set relates to MDAMB231. Described as above. The class given is cell-based, human. The protocol:
as §1

Another data set concerns MDAMB436. The data set is described as above. The class given is cell-based, human. Here is the method:
as §1

A further data set concerns MDAMB453. Described as above. The class given is cell-based, human. Here is the method: as §1
The test system of another data set is MDAMB468. Described as above. The data set is classed as cell-based, human. The protocol: as §1
Another data set has as its system SKBR3. The data set is described as above. The class given is cell-based, human. The protocol: as §1
The next data set has as its system SUM149PT. The data set is described as above. The class given is cell-based, human. The protocol: as §1
Another data set has as its system SUM159PT. The data set is described as above. The data set is classed as cell-based, human. Here is the method: as §1
The next data set relates to T47D. The description is as above. The data set is classed as cell-based, human. The protocol:
as §1

The subject of data set [2] is panel of 22 breast cancer cell lines. The experiment in a line: growth inhibition assay, whole panel (SF50). The data set is classed as cell-based, human. The protocol:
as §1

In data set [3] the test system is BRCA1/2 mutation carriers. The settings on record: monotherapy; BRCA1/2 mutation carriers who had previously received several courses of chemotherapy; cited from earlier work.
The subject of data set [4] is sporadic triple negative breast cancer. The note with it: cited from earlier work.
In data set [5] the test system is hereditary BRCA1/2-related breast cancer. The note with it: cited from earlier work.
The test system of data set [6] is carriers of a BRCA1/2 mutation and patients without known BRCA mutations. The settings on record: cited from earlier work.
[7] abbreviates: read-out: Olaparib SF50, continuous exposure 15 days, sulphorhodamine-B.
The mark [8] stands for this setting: read-out: olaparib SF50, Table 9.
Where [9] appears, read: heavily pre-treated sporadic triple negative breast cancer.

Each structure is given as a SMILES string. Where two headings read alike, the source gives them in different places. Some results are limits rather than exact numbers.

Regarding `NC(=O)c1ccc(I)c([N+](=O)[O-])c1` [BSI-201], in [1] (combined with gemcitabine/carboplatin chemotherapy), the “survival, phase II clinical trial” value is recorded as “dramatic survival advantage”. Further, the “confirmation in randomized, open-label phase III study” value in data set [1] (combined with gemcitabine/carboplatin) was “could not be confirmed”.
Consider `O=C(c1cc(Cc2n[nH]c(=O)c3ccccc23)ccc1F)N1CCN(C(=O)C2CC2)CC1` [Olaparib], for which the IC50 in the data set on BT20 (setting [7]) was more than 50 µM; in the data set with BT20 (setting [8]) it was more than 50 µM; in the data set on BT474 (setting [7]) it was 32 µM; in the data set on BT474 (setting [8]), 32 µM; in the data set with BT549 (setting [7]), 21.4 µM; in the data set on BT549 (setting [8]), 21.4 µM. Moreover, the IC50 in the data set with CAMA1 (setting [7]) is more than 50 µM; in the data set with CAMA1 (setting [8]) it was more than 50 µM; in the data set on HCC1143 (setting [7]), 0.0211 µM; in the data set on HCC1143 (setting [8]), 0.0211 µM; with HCC1428 (setting [7]), more than 50 µM; with HCC1428 (setting [8]), more than 50 µM. For the same compound, the IC50 in the data set on HCC1954 (setting [7]) was 15.5 µM; in the data set on HCC1954 (setting [8]) it was 15.5 µM; in the data set with HCC202 (setting [7]), 0.413 µM; in the data set with HCC202 (setting [8]), 0.413 µM; in the data set with HCC38 (setting [7]), more than 50 µM; in the data set on HCC38 (setting [8]), more than 50 µM. Besides, the IC50 amounted to 0.655 µM with HCC70 (setting [7]); 0.655 µM with HCC70 (setting [8]); 6.55 µM with HS578T (setting [7]); 6.55 µM in the data set with HS578T (setting [8]); 14.7 µM in the data set with MCF7 (setting [7]); 14.7 µM with MCF7 (setting [8]). Further, the IC50 worked out at 30.9 µM in the data set with MDAMB134VI (setting [7]); 30.9 µM in the data set with MDAMB134VI (setting [8]); 2.41 µM in the data set on MDAMB157 (setting [7]); 2.41 µM in the data set on MDAMB157 (setting [8]); 30 µM in the data set with MDAMB231 (setting [7]); 30 µM in the data set with MDAMB231 (setting [8]). For the same compound, the IC50 came to 0.00044 µM in the data set on MDAMB436 (setting [7]); 0.00044 µM in the data set on MDAMB436 (setting [8]); 0.00915 µM in the data set with MDAMB453 (setting [7]); 0.00915 µM with MDAMB453 (setting [8]); 0.514 µM in the data set on MDAMB468 (setting [7]); 0.514 µM in the data set on MDAMB468 (setting [8]). The IC50 was more than 50 µM in the data set with SKBR3 (setting [7]); more than 50 µM with SKBR3 (setting [8]); 0.0161 µM with SUM149PT (setting [7]); 0.0161 µM in the data set with SUM149PT (setting [8]); 16.3 µM in the data set with SUM159PT (setting [7]); 16.3 µM in the data set on SUM159PT (setting [8]). Further, the IC50 in the data set with T47D (setting [7]) was 19.9 µM; with T47D (setting [8]), 19.9 µM; in data set [2] (5 cell lines of the panel, read-out: SF50 not reached at the maximum treatment concentration), more than 50 µM; in data set [2] (read-out: concentration of olaparib needed to reduce survival to 50% (SF50), lower end of the range, lowest SF50 among 22 breast cancer cell lines), 0.00044 µM; in [2] (read-out: concentration of olaparib needed to reduce survival to 50% (SF50), upper end of the range, highest SF50 reached among 22 breast cancer cell lines), 32 µM. The objective response rates in data set [3] is on record as 41%. For the same compound, the “results as single agent” value in data set [4] (setting [9]) is reported as “negative results”. The “response to monotherapy, phase 2 trial” value in data set [4] (olaparib monotherapy, triple negative breast cancer patients) is on record as “largely did not respond”. Further, the “efficacy as single agent” value in [5] is “efficacious”. Moreover, the “antitumor activity, phase 1 trial” value in [6] (BRCA1/2 mutation carriers vs patients without known BRCA mutations) is on record as “has antitumor activity for the majority of carriers of a BRCA1/2 mutation but not for patients without known BRCA mutations”. For the same compound, in data set [6] (compared with conventional chemotherapy), the “adverse effects, phase 1 trial” value was “only a few of the adverse effects of conventional chemotherapy”.
Consider `NC(=O)c1cccc2cn(-c3ccc([C@@H]4CCCNC4)cc3)nc12` [MK-4827], for which, in data set [5], the “efficacy as single agent” value is given as “efficacious”.
With `C[C@]1(c2nc3c(C(N)=O)cccc3[nH]2)CCCN1` [ABT-888], the “activity of the combination with temozolomide” value in data set [4] (setting [9]) is “no evidence of activity”. Moreover, the “efficacy combined with DNA-damaging agent temozolomide” value in [5] was “efficacious”.
